Reference: patent publication US20070128217A1 (priority 2003, published 2007)

What was measured:
[1] = tested on: antibodies in sera from SARS patients (sera 1a, 1b, 2, 6, 37, 62, London, SARS-yellow, SARS-green); assay type: binding, human; design: Binding of serum 6 to linear peptides of protein X1 of SARS-CoV Urbani / Binding of serum 37 to linear peptides of protein X1 of SARS-CoV Urbani / Binding of serum 6 to looped/cyclic peptide (PEPSCAN-ELISA) / Binding of serum 37 to looped/cyclic peptide (PEPSCAN-ELISA) / Binding of serum 37 to looped/cyclic peptides of protein X1 of SARS-CoV Urbani / Binding of serum 6 to linear peptides of protein X2 / Binding of serum 37 to linear peptides of protein X2 / Binding of serum 37 to looped/cyclic peptides of protein X2 of SARS-CoV Urbani / Binding of serum 6 to linear peptides of protein M of SARS-CoV Urbani / Binding of serum 37 to linear peptides of protein M of SARS-CoV Urbani / Binding of serum 6 to looped/cyclic peptides of protein M of SARS-CoV Urbani / Binding of serum 37 to looped/cyclic peptides of protein M of SARS-CoV Urbani / Binding of serum 6 to linear peptides of protein X3 of SARS-CoV Urbani / Binding of serum 37 to linear peptides of protein X3 of SARS-CoV Urbani / Binding of serum 37 to looped/cyclic peptides of protein X3 of SARS-CoV Urbani / Binding of serum 6 to linear peptides of protein X4 of SARS-CoV Urbani / Binding of serum 37 to linear peptides of protein X4 of SARS-CoV Urbani / Binding of serum 37 to looped/cyclic peptides of protein X4 of SARS-CoV Urbani / Binding of serum 6 to linear peptides of protein X5 of SARS-CoV Urbani / Binding of serum 37 to linear peptides of protein X5 of SARS-CoV Urbani / Binding of serum 37 to looped/cyclic peptides of protein X5 of SARS-CoV Urbani / Binding of serum 6 to linear peptides of protein N of SARS-CoV Urbani / Binding of serum 37 to linear peptides of protein N of SARS-CoV Urbani / Binding of serum 6 to linear peptide (PEPSCAN-ELISA) / Binding of serum 1a to looped/cyclic peptides of protein N of SARS-CoV Urbani / Binding of serum 1b to looped/cyclic peptides of protein N of SARS-CoV Urbani / Binding of serum 2 to looped/cyclic peptides of protein N of SARS-CoV Urbani / Binding of serum 6 to looped/cyclic peptides of protein N of SARS-CoV Urbani / Binding of serum 37 to looped/cyclic peptides of protein N of SARS-CoV Urbani / Binding of serum 62 to looped/cyclic peptides of protein N of SARS-CoV Urbani / Binding of serum London to looped/cyclic peptides of protein N of SARS-CoV Urbani / Binding of serum SARS-green to looped/cyclic peptides of protein N of SARS-CoV Urbani: unit not given here
[2] = tested on: control sera (pooled serum of ten healthy LUMC hospital workers; commercial negative donor pooled serum from the Dutch bloodbank); assay type: binding, human; design: Binding of Control serum LUMC to linear peptides / Binding of Control serum Blood-bank to linear peptides / Binding of Control serum LUMC to looped peptides / Binding of Control Serum Blood-Bank to Looped peptides / Binding of Control serum LUMC to linear peptides of the protein M of SARS-CoV Urbani / Binding of Control serum Blood-bank to linear peptides of the protein M of SARS-CoV Urbani / Binding of Control serum LUMC to looped peptides of the protein M of SARS-CoV Urbani / Binding of Control Serum Blood-Bank to Looped peptides of the protein M of SARS-CoV Urbani: unit not given here
[3] = tested on: rabbit serum obtained by immunizing a rabbit with the SARS-CoV strain Frankfurt 1; assay type: binding; design: Binding of a rabbit serum to linear peptides / Binding of a rabbit serum to looped peptides / Rabbit serum linear peptides / Rabbit serum looped peptides / Binding of a rabbit serum to linear peptides of protein N of SARS-CoV Urbani (Rabbit serum linear peptides) / Binding of a rabbit serum to looped/cyclic peptides of protein N of SARS-CoV Urbani (Rabbit serum looped peptides): unit not given here

LTSLLKTHRMCKYTQ
Binding of serum 1a to linear peptides of protein X2 [1]: 0.7
Binding of serum 1a to looped/cyclic peptides of protein X2 of SARS-CoV Urbani [1]: 0.4
Binding of serum 1b to linear peptides of protein X2 [1]: 0.3
Binding of serum 1b to looped/cyclic peptides of protein X2 of SARS-CoV Urbani [1]: 0.3
Binding of serum 2 to linear peptides of protein X2 [1]: 0.5
Binding of serum 2 to looped/cyclic peptides of protein X2 of SARS-CoV Urbani [1]: 0.2
Binding of serum 6 to linear peptides of protein X2 [1]: 0.5
Binding of serum 6 to looped/cyclic peptides of protein X2 of SARS-CoV Urbani [1]: 0.2
Binding of serum 37 to linear peptides of protein X2 [1]: 0.6
Binding of serum 37 to looped/cyclic peptides of protein X2 of SARS-CoV Urbani [1]: 0.3
Binding of serum 62 to linear peptides of protein X2 [1]: 0.6
Binding of serum 62 to looped/cyclic peptides of protein X2 of SARS-CoV Urbani [1]: 0.4
Binding of serum London to linear peptides of protein X2 [1]: 0.5
Binding of serum London to looped/cyclic peptides of protein X2 of SARS-CoV Urbani [1]: 0.2
Binding of serum SARS-green to linear peptides of protein X2 [1]: 0.2
Binding of serum SARS-green to looped/cyclic peptides of protein X2 of SARS-CoV Urbani [1]: 0.2
Binding of serum SARS-yellow to linear peptides of protein X2 [1]: 0.4
Binding of serum SARS-yellow to looped/cyclic peptides of protein X2 of SARS-CoV Urbani [1]: 0.3
Binding of Control Serum Blood-Bank to Looped peptides [2]: 0.4
Binding of Control serum Blood-bank to linear peptides [2]: 0.5
Binding of Control serum LUMC to linear peptides [2]: 0.4
Binding of Control serum LUMC to looped peptides [2]: 0.5
Binding of a rabbit serum to linear peptides [3]: 0.3
Binding of a rabbit serum to looped peptides [3]: 0.4

LVFLILCFTIKRKTE
Binding of serum 1a to linear peptides of protein X4 of SARS-CoV Urbani [1]: 0.7
Binding of serum 1a to looped/cyclic peptides of protein X4 of SARS-CoV Urbani [1]: 0.7
Binding of serum 1b to linear peptides of protein X4 of SARS-CoV Urbani [1]: 0.6
Binding of serum 1b to looped/cyclic peptides of protein X4 of SARS-CoV Urbani [1]: 0.4
Binding of serum 2 to linear peptides of protein X4 of SARS-CoV Urbani [1]: 0.5
Binding of serum 2 to looped/cyclic peptides of protein X4 of SARS-CoV Urbani [1]: 0.6
Binding of serum 6 to linear peptides of protein X4 of SARS-CoV Urbani [1]: 0.7
Binding of serum 6 to looped/cyclic peptides of protein X4 of SARS-CoV Urbani [1]: 0.7
Binding of serum 37 to linear peptides of protein X4 of SARS-CoV Urbani [1]: 0.7
Binding of serum 37 to looped/cyclic peptides of protein X4 of SARS-CoV Urbani [1]: 0.6
Binding of serum 62 to linear peptides of protein X4 of SARS-CoV Urbani [1]: 0.8
Binding of serum 62 to looped/cyclic peptides of protein X4 of SARS-CoV Urbani [1]: 0.7
Binding of serum London to linear peptides of protein X4 of SARS-CoV Urbani [1]: 0.8
Binding of serum London to looped/cyclic peptides of protein X4 of SARS-CoV Urbani [1]: 0.4
Binding of serum SARS-green to linear peptides of protein X4 of SARS-CoV Urbani [1]: 0.7
Binding of serum SARS-green to looped/cyclic peptides of protein X4 of SARS-CoV Urbani [1]: 0.2
Binding of serum SARS-yellow to linear peptides of protein X4 of SARS-CoV Urbani [1]: 0.6
Binding of serum SARS-yellow to looped/cyclic peptides of protein X4 of SARS-CoV Urbani [1]: 0.7
Binding of Control Serum Blood-Bank to Looped peptides [2]: 0.8
Binding of Control serum Blood-bank to linear peptides [2]: 0.8
Binding of Control serum LUMC to linear peptides [2]: 0.6
Binding of Control serum LUMC to looped peptides [2]: 0.6
Rabbit serum linear peptides [3]: 0.5
Rabbit serum looped peptides [3]: 0.6

LVFLWLLWPVTLACF
Binding of serum 1a to linear peptides of protein M of SARS-CoV Urbani [1]: 0.7
Binding of serum 1a to looped/cyclic peptides of protein M of SARS-CoV Urbani [1]: 0.6
Binding of serum 1b to linear peptides of protein M of SARS-CoV Urbani [1]: 0.5
Binding of serum 1b to looped/cyclic peptides of protein M of SARS-CoV Urbani [1]: 0.5
Binding of serum 2 to linear peptides of protein M of SARS-CoV Urbani [1]: 0.4
Binding of serum 2 to looped/cyclic peptides of protein M of SARS-CoV Urbani [1]: 0.7
Binding of serum 6 to linear peptides of protein M of SARS-CoV Urbani [1]: 0.6
Binding of serum 6 to looped/cyclic peptides of protein M of SARS-CoV Urbani [1]: 0.6
Binding of serum 37 to linear peptides of protein M of SARS-CoV Urbani [1]: 0.6
Binding of serum 37 to looped/cyclic peptides of protein M of SARS-CoV Urbani [1]: 0.7
Binding of serum 62 to linear peptides of protein M of SARS-CoV Urbani [1]: 0.8
Binding of serum 62 to looped/cyclic peptides of protein M of SARS-CoV Urbani [1]: 0.7
Binding of serum London to linear peptides of protein M of SARS-CoV Urbani [1]: 0.7
Binding of serum London to looped/cyclic peptides of protein M of SARS-CoV Urbani [1]: 0.2
Binding of serum SARS-green to linear peptides of protein M of SARS-CoV Urbani [1]: 0.2
Binding of serum SARS-green to looped/cyclic peptides of protein M of SARS-CoV Urbani [1]: 0.3
Binding of serum SARS-yellow to linear peptides of protein M of SARS-CoV Urbani [1]: 0.1
Binding of serum SARS-yellow to looped/cyclic peptides of protein M of SARS-CoV Urbani [1]: 0.4
Binding of Control Serum Blood-Bank to Looped peptides of the protein M of SARS-CoV Urbani [2]: 0.7
Binding of Control serum Blood-bank to linear peptides of the protein M of SARS-CoV Urbani [2]: 0.5
Binding of Control serum LUMC to linear peptides of the protein M of SARS-CoV Urbani [2]: 0.2
Binding of Control serum LUMC to looped peptides of the protein M of SARS-CoV Urbani [2]: 0.7
Rabbit serum linear peptides [3]: 0.3
Rabbit serum looped peptides [3]: 0.3

LVIGFLFLAWIMLLQ
Binding of serum 1a to linear peptides of protein M of SARS-CoV Urbani [1]: 0.7
Binding of serum 1a to looped/cyclic peptides of protein M of SARS-CoV Urbani [1]: 0.7
Binding of serum 1b to linear peptides of protein M of SARS-CoV Urbani [1]: 0.5
Binding of serum 1b to looped/cyclic peptides of protein M of SARS-CoV Urbani [1]: 0.6
Binding of serum 2 to linear peptides of protein M of SARS-CoV Urbani [1]: 0.5
Binding of serum 2 to looped/cyclic peptides of protein M of SARS-CoV Urbani [1]: 0.8
Binding of serum 6 to linear peptides of protein M of SARS-CoV Urbani [1]: 0.4
Binding of serum 6 to looped/cyclic peptides of protein M of SARS-CoV Urbani [1]: 0.5
Binding of serum 37 to linear peptides of protein M of SARS-CoV Urbani [1]: 0.4
Binding of serum 37 to looped/cyclic peptides of protein M of SARS-CoV Urbani [1]: 0.7
Binding of serum 62 to linear peptides of protein M of SARS-CoV Urbani [1]: 0.4
Binding of serum 62 to looped/cyclic peptides of protein M of SARS-CoV Urbani [1]: 0.7
Binding of serum London to linear peptides of protein M of SARS-CoV Urbani [1]: 0.3
Binding of serum London to looped/cyclic peptides of protein M of SARS-CoV Urbani [1]: 0.2
Binding of serum SARS-green to linear peptides of protein M of SARS-CoV Urbani [1]: 0.4
Binding of serum SARS-green to looped/cyclic peptides of protein M of SARS-CoV Urbani [1]: 0.3
Binding of serum SARS-yellow to linear peptides of protein M of SARS-CoV Urbani [1]: 0.1
Binding of serum SARS-yellow to looped/cyclic peptides of protein M of SARS-CoV Urbani [1]: 0.7
Binding of Control Serum Blood-Bank to Looped peptides of the protein M of SARS-CoV Urbani [2]: 0.6
Binding of Control serum Blood-bank to linear peptides of the protein M of SARS-CoV Urbani [2]: 0.6
Binding of Control serum LUMC to linear peptides of the protein M of SARS-CoV Urbani [2]: 0.5
Binding of Control serum LUMC to looped peptides of the protein M of SARS-CoV Urbani [2]: 0.7
Rabbit serum linear peptides [3]: 0.1
Rabbit serum looped peptides [3]: 0.3
